Some test systems named below: NCI-H226 lung; CAKI-1 renal; K-562 leukemia; NCI-H460 lung; HOP-62 NSCLC; EKVX NSCLC; CCRF-CEM leukemia; M14 melanoma; COLO 205 colon; OVCAR-4 ovarian.
What all share (assay): NCI-60 cell line screen, 48 h

The structures appear in SMILES notation.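 Results reflect a 48-hour exposure of cells in 96-well plates to compound at five concentrations. Abbreviation: GI50, concentration required for 50% inhibition of growth. TGI marks complete inhibition of growth.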 Some results are limits rather than exact numbers.

Data on seven compounds can be found in PubChem BioAssay (NCI).

For `C=C(C)[C@@H]1CC[C@@]2(C)[C@H]1[C@H]1CCC3[C@@]4(C)CC[C@H](O)C(C)(C)[C@@H]4CC[C@@]3(C)[C@]1(C)C[C@@H]2O` (some centres not stated), the TGI in the assay with NCI-H226 lung was over 100 µM; in the assay on CAKI-1 renal, over 100 µM; in the assay on K-562 leukemia, 47.7 µM; in the assay with NCI-H460 lung it was over 100 µM; in the assay on HOP-62 NSCLC, over 100 µM; in the assay on EKVX NSCLC it was over 100 µM. Besides, the TGI in the assay on CCRF-CEM leukemia and in the assay on M14 melanoma was over 100 µM throughout.

With `COC(=O)[C@@H]1CCCN1C(=O)[C@@H]1CCCN1C(=O)[C@@H](Cc1c[nH]c2ccccc12)NC(=S)Nc1cc(C(F)(F)F)cc(C(F)(F)F)c1`, the GI50 in the assay with NCI-H226 lung was 7.74 µM; with CAKI-1 renal, 16.9 µM; with K-562 leukemia it was 3.98 µM; in the assay with NCI-H460 lung it was 4.77 µM; in the assay on HOP-62 NSCLC it was 8.35 µM; with COLO 205 colon, 2.41 µM. For the same compound, the GI50 in the assay on CCRF-CEM leukemia was 3.39 µM; with OVCAR-4 ovarian it was 4.32 µM; with M14 melanoma it was 4.68 µM. Moreover, the TGI in the assay with NCI-H226 lung is over 100 µM; with CAKI-1 renal it was over 100 µM; with K-562 leukemia it was over 100 µM; in the assay on NCI-H460 lung, over 100 µM; in the assay on HOP-62 NSCLC it was over 100 µM; in the assay with COLO 205 colon it was 5.5 µM. The TGI in the assay with CCRF-CEM leukemia was over 100 µM; with OVCAR-4 ovarian, over 100 µM; in the assay on M14 melanoma, 21.1 µM.

Consider `COc1ccc(/C=C2\CCCC3=C2NC(C)=NC3c2ccc(OC)c(OC)c2)cc1OC` (configuration not stated), for which the GI50 with NCI-H226 lung was 12.2 µM; with CAKI-1 renal, 21.4 µM; in the assay with K-562 leukemia, 4.54 µM; in the assay with NCI-H460 lung, 47.7 µM; with HOP-62 NSCLC it was 3.75 µM; in the assay on COLO 205 colon, 5.5 µM. The results for the GI50 in the assay with CCRF-CEM leukemia, with OVCAR-4 ovarian and in the assay with M14 melanoma were 2.75 µM, 12.4 µM and 18.6 µM, respectively. In addition, the TGI is 99.8 µM in the assay on NCI-H226 lung; over 100 µM in the assay with CAKI-1 renal; over 100 µM in the assay on K-562 leukemia; over 100 µM with NCI-H460 lung; 38.8 µM in the assay with HOP-62 NSCLC; over 100 µM with COLO 205 colon. The TGI with CCRF-CEM leukemia, in the assay on OVCAR-4 ovarian and in the assay with M14 melanoma was over 100 µM each time.

Turning to `O=C1CC2C(=O)N(Cc3ccccc3)C1C(S(=O)(=O)c1ccccc1)C2S(=O)(=O)c1ccccc1` (configuration not stated), the TGI amounted to 27.8 µM in the assay with NCI-H226 lung; 1.85 µM with CAKI-1 renal; 6.66 µM with K-562 leukemia; 34.9 µM in the assay on NCI-H460 lung; 36.9 µM in the assay with HOP-62 NSCLC; 3.18 µM in the assay with COLO 205 colon. In addition, the TGI turned out to be 3.46 µM with CCRF-CEM leukemia, 4.74 µM with OVCAR-4 ovarian and 4.22 µM in the assay on M14 melanoma.

In the case of `Fc1ccc(Nc2nc(NCCNc3ccnc4cc(Cl)ccc34)nc(N3CCOCC3)n2)cc1`, the GI50 was 14.4 µM in the assay on NCI-H226 lung; 5.59 µM in the assay on CAKI-1 renal; 2.91 µM with K-562 leukemia; 3.44 µM in the assay on NCI-H460 lung; 13.4 µM with HOP-62 NSCLC; 1.71 µM in the assay with COLO 205 colon. Further, the GI50 with CCRF-CEM leukemia was 0.457 µM; in the assay with OVCAR-4 ovarian it was 10.7 µM; in the assay with M14 melanoma, 1.94 µM. Also, the TGI in the assay on NCI-H226 lung turned out to be 33.4 µM; in the assay on CAKI-1 renal, 19.5 µM; with K-562 leukemia, 10.3 µM; in the assay on NCI-H460 lung, 14 µM; in the assay with HOP-62 NSCLC it was 26.5 µM; in the assay with COLO 205 colon, 3.26 µM. The TGI with CCRF-CEM leukemia was 16.3 µM; in the assay on OVCAR-4 ovarian, 23.1 µM; in the assay with M14 melanoma, 3.66 µM.

For the compound `C[C@H](CS(C)(=O)=O)Nc1ncc2cc(Oc3ccc(F)cc3F)c(=O)n(C)c2n1`, the GI50 with NCI-H226 lung, with CAKI-1 renal, in the assay on K-562 leukemia, in the assay on NCI-H460 lung, in the assay on HOP-62 NSCLC and with COLO 205 colon was over 25 µM in each case. Further, the GI50 in the assay with CCRF-CEM leukemia, in the assay with OVCAR-4 ovarian and in the assay with M14 melanoma was over 25 µM in each case. Further, the TGI with NCI-H226 lung, in the assay with CAKI-1 renal, in the assay with K-562 leukemia, in the assay with NCI-H460 lung, in the assay with HOP-62 NSCLC and in the assay on COLO 205 colon was over 25 µM each time. Besides, the TGI in the assay on CCRF-CEM leukemia, in the assay on OVCAR-4 ovarian and in the assay on M14 melanoma was over 25 µM each time.

For `COc1ccccc1-c1c(C)nn2c(NCc3ccccn3)cc(C)nc12`, the GI50 in the assay with NCI-H226 lung is 40.3 µM; in the assay on CAKI-1 renal, 12.4 µM; in the assay with K-562 leukemia it was 5.85 µM; in the assay on NCI-H460 lung, 27.1 µM; with HOP-62 NSCLC, 34.7 µM; in the assay on COLO 205 colon, 1.92 µM. Moreover, the GI50 in the assay on CCRF-CEM leukemia was 6.89 µM; with OVCAR-4 ovarian, 2.32 µM; in the assay on M14 melanoma, 24.7 µM. The TGI with NCI-H226 lung, with CAKI-1 renal, with K-562 leukemia, in the assay with NCI-H460 lung, in the assay with HOP-62 NSCLC and in the assay with COLO 205 colon was over 50 µM in each case. Also, the TGI in the assay with CCRF-CEM leukemia, with OVCAR-4 ovarian and in the assay with M14 melanoma was over 50 µM throughout.
